From patent US8642609B2, “Modulators of ATP-binding cassette transporters” (Vertex Pharmaceuticals Incorporated, priority 2003, dated 2014) come the findings set out here.

pEC50: −log10 of the molar value. Some results are limits rather than exact numbers.

The target in this experiment is T1, ΔF508-CFTR (Homo sapiens, UniProt P13569, DEL508-508).
T1 construct: expressed in transfected cells
Kind of experiment: Membrane potential optical assay (FRET/VIPR), identification of correction compounds. The class given is cell-based. From the text: I) Membrane Potential Optical Methods for Assaying ΔF508-CFTR Modulation Properties of Compounds
The optical membrane potential assay utilized voltage-sensitive FRET sensors described by Gonzalez and Tsien (See, Gonzalez, J. E. and R. Y. Tsien (1995) “Voltage sensing by fluorescence resonance energy transfer in single cells” Biophys J 69(4): 1272-80, and Gonzalez, J. E. and R. Y. Tsien (1997) “Improved indicators of cell membrane potential that use fluorescence resonance energy transfer” Chem Biol 4(4): 269-77) in combination with instrumentation for measuring fluorescence changes such as the Voltage/Ion Probe Reader (VIPR) (See, Gonzalez, J. E., K. Oades, et al. (1999) “Cell-based assays and instrumentation for screening ion-channel targets” Drug Discov Today 4(9): 431-439).
These voltage sensitive assays are based on the change in fluorescence resonant energy transfer (FRET) between the membrane-soluble, voltage-sensitive dye, DiSBAC2(3), and a fluorescent phospholipid, CC2-DMPE, which is attached to the outer leaflet of the plasma membrane and acts as a FRET donor. Changes in membrane potential (Vm) cause the negatively charged DiSBAC2(3) to redistribute across the plasma membrane and the amount of energy transfer from CC2-DMPE changes accordingly. The changes in fluorescence emission were monitored using VIPR™ II, which is an integrated liquid handler and fluorescent detector designed to conduct cell-based screens in 96- or 384-well microtiter plates.
Identification of Correction Compounds
To identify small molecules that correct the trafficking defect associated with ΔF508-CFTR; a single-addition HTS assay format was developed. The cells were incubated in serum-free medium for 16 hrs at 37° C. in the presence or absence (negative control) of test compound. As a positive control, cells plated in 384-well plates were incubated for 16 hrs at 27° C. to “temperature-correct” ΔF508-CFTR. The cells were subsequently rinsed 3× with Krebs Ringers solution and loaded with the voltage-sensitive dyes. To activate ΔF508-CFTR, 10 μM forskolin and the CFTR potentiator, genistein (20 μM), were added along with Cl^−-free medium to each well. The addition of Cl^−-free medium promoted Cl^− efflux in response to ΔF508-CFTR activation and the resulting membrane depolarization was optically monitored using the FRET-based voltage-sensor dyes.
NIH3T3 mouse fibroblasts stably expressing ΔF508-CFTR are used for optical measurements of membrane potential. The cells are maintained at 37° C. in 5% CO2 and 90% humidity in Dulbecco's modified Eagle's medium supplemented with 2 mM glutamine, 10% fetal bovine serum, 1×NEAA, β-ME, 1× pen/strep, and 25 mM HEPES in 175 cm^2 culture flasks. For all optical assays, the cells were seeded at 30,000/well in 384-well matrigel-coated plates and cultured for 2 hrs at 37° C. before culturing at 27° C. for 24 hrs. for the potentiator assay. For the correction assays, the cells are cultured at 27° C. or 37° C. with and without compounds for 16-24 hours B) Electrophysiological Assays for assaying ΔF508-CFTR modulation properties of compounds

T1 sequence (P13569 with tags, fused parts or gaps DEL508-508): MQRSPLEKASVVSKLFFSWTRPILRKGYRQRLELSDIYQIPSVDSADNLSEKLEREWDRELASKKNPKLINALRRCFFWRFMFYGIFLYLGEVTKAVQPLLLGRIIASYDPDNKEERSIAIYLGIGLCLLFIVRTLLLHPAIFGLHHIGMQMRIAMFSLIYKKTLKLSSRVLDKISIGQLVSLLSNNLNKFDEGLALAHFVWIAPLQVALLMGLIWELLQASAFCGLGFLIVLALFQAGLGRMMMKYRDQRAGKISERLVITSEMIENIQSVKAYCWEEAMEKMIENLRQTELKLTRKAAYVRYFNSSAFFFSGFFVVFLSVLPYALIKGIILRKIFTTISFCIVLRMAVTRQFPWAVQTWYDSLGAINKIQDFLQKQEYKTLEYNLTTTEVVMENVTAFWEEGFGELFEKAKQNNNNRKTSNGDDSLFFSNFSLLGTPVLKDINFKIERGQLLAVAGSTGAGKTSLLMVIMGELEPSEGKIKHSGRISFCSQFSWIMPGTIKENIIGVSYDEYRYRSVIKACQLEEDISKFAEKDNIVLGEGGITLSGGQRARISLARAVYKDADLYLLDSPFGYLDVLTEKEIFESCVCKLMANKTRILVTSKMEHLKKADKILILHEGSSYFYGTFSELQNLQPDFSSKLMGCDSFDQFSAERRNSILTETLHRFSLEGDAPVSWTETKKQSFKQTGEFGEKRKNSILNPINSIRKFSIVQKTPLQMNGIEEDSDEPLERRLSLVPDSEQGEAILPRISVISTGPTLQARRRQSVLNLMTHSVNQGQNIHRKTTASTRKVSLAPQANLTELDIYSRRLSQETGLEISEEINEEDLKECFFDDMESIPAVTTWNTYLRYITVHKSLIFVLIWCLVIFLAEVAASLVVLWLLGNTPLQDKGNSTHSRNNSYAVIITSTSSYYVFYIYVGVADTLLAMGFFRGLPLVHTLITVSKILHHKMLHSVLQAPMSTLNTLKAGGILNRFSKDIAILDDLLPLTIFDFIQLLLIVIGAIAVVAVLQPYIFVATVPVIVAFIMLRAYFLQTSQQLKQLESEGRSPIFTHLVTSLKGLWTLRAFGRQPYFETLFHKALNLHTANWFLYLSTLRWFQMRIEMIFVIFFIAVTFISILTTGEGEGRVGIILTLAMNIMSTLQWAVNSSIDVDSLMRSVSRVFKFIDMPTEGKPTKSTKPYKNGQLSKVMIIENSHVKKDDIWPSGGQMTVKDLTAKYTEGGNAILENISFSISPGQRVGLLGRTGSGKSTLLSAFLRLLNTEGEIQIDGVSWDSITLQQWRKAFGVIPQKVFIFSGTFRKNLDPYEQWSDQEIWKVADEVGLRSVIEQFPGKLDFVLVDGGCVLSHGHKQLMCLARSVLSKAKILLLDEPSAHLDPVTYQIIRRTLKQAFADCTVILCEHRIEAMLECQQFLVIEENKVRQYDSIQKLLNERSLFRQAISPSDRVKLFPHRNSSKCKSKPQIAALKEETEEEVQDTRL

On to `CC(c1nc2ccccc2c(=O)n1C)N1CCN(S(=O)(=O)c2ccc(C(=O)O)cc2)CC1` (stereo not shown) [compound 240], for which the pEC50 is 4.22 to 4.60. The Emax (relative efficacy) is < 25%.
As to `COc1ccc(S(=O)(=O)N2CCN(C(C)c3nc(OC4CCCC4)c4ccccc4n3)CC2)cc1` (stereo not shown) [compound 191], the pEC50 was > 5.00. The “% Efficacy” value (relative efficacy) is recorded as “+++ (“+++” means >100%)”.
For `CC(c1nc2cccc(Cl)c2c(=O)n1C)N1CCN(S(=O)(=O)c2ccc(Cl)cc2)CC1` (stereo not shown) [compound 104], the pEC50 was 4.60 to 5.00. Further, the Emax (relative efficacy) was < 25%.
In the same order, the values of `CC(NC1CCN(S(=O)(=O)c2ccc(Br)cc2)CC1)c1nc2ccccc2c(=O)n1C` (stereo not shown) [compound 210] are > 5.00 and > 100%.
In the same order, the values of `CC(c1nc2ccccc2c(=O)n1C)N(CCCNS(=O)(=O)c1ccc(Cl)cc1)S(=O)(=O)c1ccc(Cl)cc1` (stereo not shown) [compound 206] are 4.22 to 4.60 and < 25%.
The like results for `COc1ccc(S(=O)(=O)N2CCN(C(C)c3nc(N4CCCCC4)c4ccccc4n3)CC2)cc1` (stereo not shown) [compound 302] were, in that order, > 5.00 and > 100%.
With `Cc1ccc(S(=O)(=O)N2CCN(C(C)c3nc4ccccc4c(=O)n3C)CC2)cc1` (stereo not shown) [compound 11], the pEC50 is 4.60 to 5.00. In addition, the Emax (relative efficacy) fell in the range of 25 to 100%.
In the same order, the values of `CC(c1nc2ccc(Cl)cc2c(=O)n1C)N1CCN(C(=O)Nc2ccccc2)CC1` (stereo not shown) [compound 43] are 4.22 to 4.60 and < 25%.
The like results for `CCCn1c(C(C)N2CCN(S(=O)(=O)c3ccc(Br)cc3)CC2)nc2ccccc2c1=O` (stereo not shown) [compound 27] were, in that order, > 5.00 and > 100%.
In the same order, the values of `CC(c1nc2ccccc2c(=O)n1C)N1CCN(S(=O)(=O)c2ccc(-c3ccccc3)cc2)CC1` (stereo not shown) [compound 242] are 4.22 to 4.60 and < 25%.
As for `CC(c1nc2cc(Cl)ccc2c(=O)n1C)N1CCNCC1` (stereo not shown) [compound 90], the pEC50 was 4.22 to 4.60. Moreover, the Emax (relative efficacy) was < 25%.
The like results for `COc1cccc(S(=O)(=O)N2CCN(C(C)c3nc4ccccc4c(=O)n3C)CC2)c1` (stereo not shown) [compound 249] were, in that order, 4.22 to 4.60 and 25 to 100%.
`CC(c1nc2ccccc2c(=O)n1C)N1CCN(S(=O)(=O)c2cc(S(=O)(=O)c3ccccc3)cs2)CC1` (stereo not shown) [compound 263]: the pEC50 is 4.22 to 4.60. Also, the Emax (relative efficacy) is < 25%.
The like results for `COCCOc1nc(C(C)N2CCN(S(=O)(=O)c3ccc(OC)cc3)CC2)nc2ccccc12` (stereo not shown) [compound 295] were, in that order, 4.22 to 4.60 and 25 to 100%.
The like results for `CCn1c(C(C)N2CCN(S(=O)(=O)c3cccc4ccccc34)CC2)nc2ccc(Cl)cc2c1=O` (stereo not shown) [compound 35] were, in that order, > 5.00 and 25 to 100%.
In the same order, the values of `COc1ccc(S(=O)(=O)N(C)CCN(C(C)c2nc3ccccc3c(=O)n2C)S(=O)(=O)c2ccc(OC)cc2)cc1` (stereo not shown) [compound 200] are 4.22 to 4.60 and < 25%.
In the case of `CC(c1nc2ccccc2c(=O)n1C)N1CCN(S(=O)(=O)c2csc3ccccc23)CC1` (stereo not shown) [compound 272], the pEC50 is > 5.00. Moreover, the Emax (relative efficacy) was in the range of 25 to 100%.
With `COc1ccc(S(=O)(=O)N2CCN(C(C)c3ncc4ccccc4n3)CC2)cc1` (stereo not shown) [compound 312], the negative-log EC50 (pEC50) is 4.22 to 4.60. Moreover, the Emax (relative efficacy) lay in the range of 25 to 100%.
In the same order, the values of `CCc1nc(N(C)C)c2ccccc2n1` [compound 159] are 4.22 to 4.60 and < 25%.
In the same order, the values of `C#Cc1ccc(S(=O)(=O)N2CCN(C(C)c3nc4ccccc4c(=O)n3C)CC2)cc1` (stereo not shown) [compound 354] are 4.60 to 5.00 and 25 to 100%.
In the same order, the values of `CC(c1nc2ccccc2c(=O)n1C)N1CCN(S(=O)(=O)c2ccc(Cl)c3nonc23)CC1` (stereo not shown) [compound 271] are 4.22 to 4.60 and < 25%.
For the molecule `Cc1ccc(C(=O)N2CCN(C(C)c3nc4ccccc4c(=O)n3C)CC2)cc1` (stereo not shown) [compound 74], the pEC50 is 4.60 to 5.00. In addition, under “relative efficacy”, the Emax was < 25%.
In the same order, the values of `COc1ccc(S(=O)(=O)N2CCN(Cc3nc4ccccc4c(=O)[nH]3)CC2)cc1` [compound 383] are 4.22 to 4.60 and < 25%.
In the same order, the values of `CC(c1nc2ccc(Cl)cc2c(=O)n1C)N1CCN(C(=O)c2ccc(C(F)(F)F)cc2)CC1` (stereo not shown) [compound 78] are 4.60 to 5.00 and < 25%.
The like results for `CCCn1c([C@H](C)N2CCN(S(=O)(=O)c3ccc(Br)cc3)CC2)nc2ccccc2c1=O` [compound 147] were, in that order, > 5.00 and > 100%.
For `CC(c1nc2ccccc2c(=O)n1C)N1CCN(S(=O)(=O)c2ccc(-c3cc(C(F)(F)F)on3)s2)CC1` (stereo not shown) [compound 261], the negative logarithm of the EC50 (pEC50) is 4.22 to 4.60. Further, the Emax (relative efficacy) was in the range of 25 to 100%.
The like results for `COCCn1c(C(C)N2CCN(S(=O)(=O)c3ccc(OC)cc3)CC2)nc2ccccc2c1=O` (stereo not shown) [compound 4] were, in that order, 4.60 to 5.00 and 25 to 100%.
The like results for `C[C@H](c1nc(N2CCCCC2)c2ccccc2n1)N1CCN(S(=O)(=O)c2ccc(Cl)cc2)CC1` [compound 379] were, in that order, > 5.00 and > 100%.
The like results for `CC(c1nc2ccccc2c(=O)n1C)N1CCN(S(=O)(=O)c2ccc(-c3cc(C(F)(F)F)n(C)n3)s2)CC1` (stereo not shown) [compound 275] were, in that order, 4.22 to 4.60 and < 25%.
For `COc1ccc(S(=O)(=O)N2CCN(C(C)c3nc4cc(OC)c(OC)cc4c(=O)n3C)CC2)cc1` (stereo not shown) [compound 285], the pEC50 is 4.22 to 4.60. Besides, for the setting “relative efficacy”, the Emax was in the range of 25 to 100%.
In the same order, the values of `COc1ccc(S(=O)(=O)N2CCN(C(C)c3nccc(N4CCCCC4)n3)CC2)cc1` (stereo not shown) [compound 360] are 4.22 to 4.60 and 25 to 100%.
In the same order, the values of `CC(c1nc2ccccc2c(=O)n1C)N1CCN(S(=O)(=O)c2ccc(SC(F)(F)F)cc2)CC1` (stereo not shown) [compound 352] are > 5.00 and 25 to 100%.
In the same order, the values of `CC(c1nc2ccccc2c(=O)n1C)N1CCN(S(=O)(=O)c2ccccc2)CC1` (stereo not shown) [compound 68] are 4.22 to 4.60 and 25 to 100%.
As to `CC(c1nc2ccccc2c(=O)n1C)N(CCNS(=O)(=O)c1ccc(Br)cc1)S(=O)(=O)c1ccc(Br)cc1` (stereo not shown) [compound 199], the pEC50 is 4.22 to 4.60. Also, where the note is “relative efficacy”, the Emax was < 25%.
The like results for `COc1ccc(S(=O)(=O)NC2CCN(C(C)c3nc4ccccc4c(=O)n3C)C2)cc1` (stereo not shown) [compound 161] were, in that order, 4.22 to 4.60 and < 25%.
In the same order, the values of `CC(c1nc2ccc(Cl)cc2c(=O)n1C)N1CCN(c2ccc(Cl)cc2)CC1` (stereo not shown) [compound 44] are > 5.00 and 25 to 100%.
As for `COc1ccc(S(=O)(=O)NCCNC(C)c2nc3ccccc3c(=O)n2C)cc1` (stereo not shown) [compound 167], the negative-log EC50 (pEC50) is 4.22 to 4.60. Where the note is “relative efficacy”, the Emax was < 25%.
As for `CC(c1nc2ccccc2c(=O)n1C)N1CCN(S(=O)(=O)c2ccc(F)cc2)CC1` (stereo not shown) [compound 10], the pEC50 is 4.22 to 4.60. Moreover, under “relative efficacy”, the maximal response (Emax) was 25 to 100%.
The like results for `CC(c1nc2ccccc2c(=O)n1C)N1CCN(S(=O)(=O)c2ccc(Cl)c(Cl)c2)CC1` (stereo not shown) [compound 241] were, in that order, > 5.00 and > 100%.
Turning to `CC(NC[C@@H]1CCCCN1S(=O)(=O)c1ccc(Br)cc1)c1nc2ccccc2c(=O)n1C` (stereo partly shown) [compound 215], the pEC50 was 4.22 to 4.60. For the setting “relative efficacy”, the Emax was < 25%.
The like results for `CCCn1c(C(C)N2CCN(S(=O)(=O)c3ccc(Cl)c([N+](=O)[O-])c3)CC2)nc2ccccc2c1=O` (stereo not shown) [compound 20] were, in that order, 4.22 to 4.60 and < 25%.
The like results for `COC(=O)c1sccc1S(=O)(=O)N1CCN(C(C)c2nc3ccccc3c(=O)n2C)CC1` (stereo not shown) [compound 256] were, in that order, 4.22 to 4.60 and < 25%.
The like results for `CC(c1nc2ccccc2c(=O)[nH]1)N1CCN(S(=O)(=O)c2ccc(Cl)cc2)CC1` (stereo not shown) [compound 131] were, in that order, 4.60 to 5.00 and < 25%.
Regarding `CC(c1nc2ccccc2c(=O)n1C)N1CCN(S(=O)(=O)c2ccc(C(C)(C)C)cc2)CC1` (stereo not shown) [compound 13], the pEC50 is 4.22 to 4.60. Besides, under “relative efficacy”, the Emax was < 25%.
